Key:
[1] = tested on: herring sperm DNA (fDNA); experiment: Interaction with fDNA by UV-vis spectroscopy, fluorescence spectroscopy and viscosity method; type: binding; details: UV-vis, fluorescence (fDNA-EB system), viscosity
Text: UV-vis spectroscopy, fluorescence spectroscopy and viscosity method are used to study the interaction between the Ame and herring sperm DNA (fDNA), and the interaction between the Ame-Cu complex and herring sperm DNA (fDNA), to further reveal the mechanism of antitumor activity, the obtained spectra are shown in FIGS. 7-11. […] Thereby, it can be speculated that the mechanism of antitumor activity of the Ame and its complex may be that Ame or the complex thereof enters the interior of the cell and intercalates with the DNA strand to cause apoptosis. Since the interaction of the complex with DNA is stronger than of the Ame, the antitumor activity thereof is also stronger than of the Ame.

[2] = Pyrogallol auto-oxidation method, free radical scavenging; type: biochemical; details: Tris-HCl pH 8.20, 25° C., 322 nm, read-out: IC50 to scavenge O2^−. free radical
Procedure: (§1) The free radical scavenging capability of the Ame and the Ame-Cu complex were studied by pyrogallol auto-oxidation method and ABTS method with the following steps:
(1) Pyrogallol Auto-Oxidation Method
Determination of auto-oxidation rate V0 of pyrogallol: 2 mL Tris-HCl buffer (pH=8.20) was added to a 10 mL sample tube at 25° C., 100 μL DMSO was added as a control, after adding 0.8 mL distilled water, 0.2 mL pyrogallol solution having a concentration of 2 mmol·L^−1 was added, the mixture was poured into a cuvette after mixing uniformly, the absorbance at 322 nm was measured with pure water as a blank, the A value was recorded every 10 s for a total of 4 min, linear regression was performed with t as the abscissa, and A as the ordinate, straight line slope thereof is V0, and the measurement was performed for three times to obtain an average value. […]

[3] = ABTS method, free radical scavenging; type: biochemical; details: 25° C., 5 min reaction, 730 nm; read-out: IC50 for scavenging ABTS^+. free radicals
Procedure: as §1
Determination of ABTS^+. free radical ion scavenging capability of the blank sample: at 25° C., 2.9 mL ABTS^+. free radical ion working solution was added into a 10 mL sample tube, 100 μL DMSO was added, after reacting for 5 min, the UV-vis spectrum was measured, and the absorption intensity A0 at 730 nm was recorded.
Determination of […]. free radical ion scavenging capability of the samples: at 25° C., 2.9 mL ABTS^+. free radical ion working solution was added into a 10 mL sample tube, 100 μL samples of different concentrations that were dissolved in DMSO were added, after reacting for 5 min, the UV-vis spectrum was measured, and the absorption intensity A1 at 730 nm was recorded, and the ABTS^+. free radical ion scavenging rate was calculated according to Formula 4. SR(%)=(1−A1/A0)×100% (Formula 4)
The ABTS^+. free radical scavenging capabilities of the Ame and the Ame-Cu complex are concentration dependent. Within a certain range, the scavenging rate is linear with the concentration. The curve of the scavenging rate and the concentration (c) is plotted in the present invention to obtain a corresponding linear equation, and the maximum half-inhibitory concentration (IC50 value) is calculated.

SMILES	manner of interaction with fDNA [1]	IC50 [2] [µM]	IC50 [3] [µM]
O=c1cc(-c2ccc(O)c(-c3c(O)cc(O)c4c(=O)cc(-c5ccc(O)cc5)oc34)c2)oc2cc(O)cc(O)c12 [Ame, amentoflavone]	intercalation manner	23.3	20.7
CS(C)=[O+][Cu-4]1([O+]=S(C)C)[O+]=C2C=C(c3ccc(O)cc3)Oc3c2c(cc(O)c3-c2cc(-c3cc(=O)c4c(O)cc(O)cc4o3)ccc2O)[OH+]1 [Ame-Cu complex]	intercalation manner	4.57	6.31
